{"source": "patent US7414041B2", "about": "(Trustees Of Tufts College, priority 1991, dated 2008)", "key": {"S. aureus 450": {"tested_on": "S. aureus 450", "assay": "MIC of tetracycline susceptible strains, C5 esters", "format": "cell-based", "settings": "Staphylococcus aureus; S. aureus 450, alone; read-out: MIC"}, "[1]": {"target": "T1, TET proteins responsible for tetracycline efflux (Class B tetracycline resistance determinant, strain D1-209) (Escherichia coli, UniProt P02980)", "T1 construct": "Everted vesicles, to which the TET proteins responsible for tetracycline efflux are attached; endogenous in cells; host or cells: E. coli strain D1-209 (everted membrane vesicles)", "T1 sequence (P02980 whole entry)": "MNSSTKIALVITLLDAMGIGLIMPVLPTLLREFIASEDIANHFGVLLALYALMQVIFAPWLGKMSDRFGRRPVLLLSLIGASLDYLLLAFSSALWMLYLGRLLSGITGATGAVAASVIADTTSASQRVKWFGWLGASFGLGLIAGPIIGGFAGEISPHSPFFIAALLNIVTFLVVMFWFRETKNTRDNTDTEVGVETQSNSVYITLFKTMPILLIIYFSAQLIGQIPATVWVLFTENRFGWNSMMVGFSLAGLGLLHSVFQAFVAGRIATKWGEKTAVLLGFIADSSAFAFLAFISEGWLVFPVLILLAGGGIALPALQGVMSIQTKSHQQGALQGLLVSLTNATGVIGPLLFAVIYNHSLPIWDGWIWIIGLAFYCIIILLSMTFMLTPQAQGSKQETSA", "assay": "biochemical", "set-up": "species or system E. coli"}, "E. faecalis ATCC 9790": {"tested_on": "E. faecalis ATCC 9790", "assay": "MIC of tetracycline susceptible strains, C5 esters", "format": "cell-based", "settings": "Enterococcus faecalis, ATCC9790; E. faecalis ATCC 9790, alone; read-out: MIC"}, "E. coli ML308": {"tested_on": "E. coli ML308", "assay": "MIC of tetracycline susceptible strains, C5 esters", "format": "cell-based", "settings": "Escherichia coli; E. coli ML308, alone; read-out: MIC"}, "E. faecalis 211 (Tet M)": {"tested_on": "E. faecalis 211 (Tet M)", "assay": "MIC/MLC chart, analog with and without doxycycline;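 further: broth checkerboard of two-fold drug dilutions, alone and mixed with doxycycline, bacteria near 5×10^5 cells/ml, 18 h incubation at 37 °C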", "format": "cell-based"}, "E. coli D1-299 (Tet A)": {"tested_on": "E. coli D1-299 (Tet A)", "format": "cell-based"}, "[2]": {"settings": "analog .195 μg/ml + doxycycline 1.56 μg/ml"}, "[3]": {"settings": "analog .195 μg/ml + doxycycline 3.12 μg/ml"}, "[4]": {"settings": "analog .195 μg/ml + doxycycline 6.25 μg/ml"}, "[5]": {"settings": "analog .39 μg/ml + doxycycline 1.56 μg/ml"}, "[6]": {"settings": "analog .39 μg/ml + doxycycline 3.12 μg/ml"}, "[7]": {"settings": "analog alone .195 μg/ml (Analog Control)"}, "[8]": {"settings": "analog alone .39 μg/ml (Analog Control)"}}, "note": "Where two headings read alike, the source gives them in different places.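 Wherever MLC in combination is given: E. coli at roughly 5×10^5 cells/ml in L broth, analog and doxycycline alone or mixed in two-fold dilutions from 50 to under 1 µg/ml, 18 h at 37 °C.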"}
{"smiles": "CCC(=O)OC1C2C(=C(O)C3(O)C(=O)C(C(N)=O)=C(O)C(N(C)C)C13)C(=O)c1c(O)cccc1C2CSC1CCCC1", "note": "(stereo not shown) [Cmpd 5, 13-cyclopentylthio-5-proprionate-6-deoxy tetracycline]", "values": [{"measurement": "MIC", "setting": "S. aureus 450", "result": 0.4, "unit": "µg/mL"}, {"measurement": "IC50", "setting": "[1]", "result": 3.3, "unit": "µM"}, {"measurement": "MIC", "setting": "E. faecalis ATCC 9790", "result": 0.4, "unit": "µg/mL"}, {"measurement": "MIC", "setting": "E. coli ML308", "result": 20, "unit": "µg/mL"}, {"measurement": "MIC/MLC chart: growth or killing", "setting": "E. faecalis 211 (Tet M); [2]", "result": "+"}, {"measurement": "MIC/MLC chart: growth or killing", "setting": "E. faecalis 211 (Tet M); [3]", "result": "+"}, {"measurement": "MIC/MLC chart: growth or killing", "setting": "E. faecalis 211 (Tet M); [4]", "result": "+"}, {"measurement": "MIC/MLC chart: growth or killing", "setting": "E. faecalis 211 (Tet M); [5]", "result": "◯"}, {"measurement": "MIC/MLC chart: growth or killing", "setting": "E. faecalis 211 (Tet M); [6]", "result": "◯"}, {"measurement": "MIC/MLC chart: growth or killing", "setting": "E. faecalis 211 (Tet M); [7]", "result": "+"}, {"measurement": "MIC/MLC chart: growth or killing", "setting": "E. faecalis 211 (Tet M); [8]", "result": "◯"}, {"measurement": "MIC/MLC chart: growth or killing", "setting": "E. coli D1-299 (Tet A); analog 1.56 μg/ml + doxycycline 1.55 μg/ml", "result": "+"}, {"measurement": "MIC/MLC chart: growth or killing", "setting": "E. coli D1-299 (Tet A); analog 1.56 μg/ml + doxycycline 3.1 μg/ml", "result": "+"}, {"measurement": "MIC/MLC chart: growth or killing", "setting": "E. coli D1-299 (Tet A); analog 1.56 μg/ml + doxycycline 6.2 μg/ml", "result": "+"}, {"measurement": "MIC/MLC chart: growth or killing", "setting": "E. coli D1-299 (Tet A); analog 3.12 μg/ml + doxycycline 1.53 μg/ml", "result": "+"}, {"measurement": "MIC/MLC chart: growth or killing", "setting": "E. coli D1-299 (Tet A); analog 3.12 μg/ml + doxycycline 3.05 μg/ml", "result": "+"}, {"measurement": "MIC/MLC chart: growth or killing", "setting": "E. coli D1-299 (Tet A); analog 3.12 μg/ml + doxycycline 6.1 μg/ml", "result": "+"}, {"measurement": "MIC/MLC chart: growth or killing", "setting": "E. coli D1-299 (Tet A); analog 6.25 μg/ml + doxycycline 3.0 μg/ml", "result": "+"}, {"measurement": "MIC/MLC chart: growth or killing", "setting": "E. coli D1-299 (Tet A); analog 6.25 μg/ml + doxycycline […]", "result": "+"}, {"measurement": "MIC/MLC chart: growth or killing", "setting": "E. coli D1-299 (Tet A); analog 12.5 μg/ml + doxycycline 2.8 μg/ml", "result": "+"}, {"measurement": "MIC/MLC chart: growth or killing", "setting": "E. coli D1-299 (Tet A); analog 12.5 μg/ml + doxycycline […]", "result": "+"}, {"measurement": "MIC/MLC chart: growth or killing", "setting": "E. coli D1-299 (Tet A); analog 25 μg/ml + doxycycline 2.4 μg/ml", "result": "+"}, {"measurement": "MIC/MLC chart: growth or killing", "setting": "E. coli D1-299 (Tet A); analog 25 μg/ml + doxycycline […]", "result": "+"}, {"measurement": "MIC/MLC chart: growth or killing", "setting": "E. coli D1-299 (Tet A); analog 50 μg/ml + doxycycline 1.56 μg/ml", "result": "+"}, {"measurement": "MIC/MLC chart: growth or killing", "setting": "E. coli D1-299 (Tet A); analog 50 μg/ml + doxycycline .78 μg/ml", "result": "+"}, {"measurement": "MIC/MLC chart: growth or killing", "setting": "E. coli D1-299 (Tet A); [2]", "result": "+"}, {"measurement": "MIC/MLC chart: growth or killing", "setting": "E. coli D1-299 (Tet A); [3]", "result": "+"}, {"measurement": "MIC/MLC chart: growth or killing", "setting": "E. coli D1-299 (Tet A); [4]", "result": "+"}, {"measurement": "MIC/MLC chart: growth or killing", "setting": "E. coli D1-299 (Tet A); analog .195 μg/ml + doxycycline 12.5 μg/ml", "result": "+"}, {"measurement": "MIC/MLC chart: growth or killing", "setting": "E. coli D1-299 (Tet A); analog .195 μg/ml + doxycycline 25.0 μg/ml", "result": "+"}, {"measurement": "MIC/MLC chart: growth or killing", "setting": "E. coli D1-299 (Tet A); [5]", "result": "+"}, {"measurement": "MIC/MLC chart: growth or killing", "setting": "E. coli D1-299 (Tet A); [6]", "result": "+"}, {"measurement": "MIC/MLC chart: growth or killing", "setting": "E. coli D1-299 (Tet A); analog .39 μg/ml + doxycycline 6.25 μg/ml", "result": "+"}, {"measurement": "MIC/MLC chart: growth or killing", "setting": "E. coli D1-299 (Tet A); analog .39 μg/ml + doxycycline 12.5 μg/ml", "result": "+"}, {"measurement": "MIC/MLC chart: growth or killing", "setting": "E. coli D1-299 (Tet A); analog .39 μg/ml + doxycycline 24.9 μg/ml", "result": "↓"}, {"measurement": "MIC/MLC chart: growth or killing", "setting": "E. coli D1-299 (Tet A); analog .78 μg/ml + doxycycline 1.56 μg/ml", "result": "+"}, {"measurement": "MIC/MLC chart: growth or killing", "setting": "E. coli D1-299 (Tet A); analog .78 μg/ml + doxycycline 3.12 μg/ml", "result": "+"}, {"measurement": "MIC/MLC chart: growth or killing", "setting": "E. coli D1-299 (Tet A); analog .78 μg/ml + doxycycline 6.23 μg/ml", "result": "+"}, {"measurement": "MIC/MLC chart: growth or killing", "setting": "E. coli D1-299 (Tet A); analog .78 μg/ml + doxycycline 12.4 μg/ml", "result": "◯"}, {"measurement": "MIC/MLC chart: growth or killing", "setting": "E. coli D1-299 (Tet A); analog alone 1.56 μg/ml (Analog Control)", "result": "+"}, {"measurement": "MIC/MLC chart: growth or killing", "setting": "E. coli D1-299 (Tet A); analog alone 3.12 μg/ml (Analog Control)", "result": "+"}, {"measurement": "MIC/MLC chart: growth or killing", "setting": "E. coli D1-299 (Tet A); analog alone 6.25 μg/ml (Analog Control)", "result": "+"}, {"measurement": "MIC/MLC chart: growth or killing", "setting": "E. coli D1-299 (Tet A); analog alone 12.5 μg/ml (Analog Control)", "result": "+"}, {"measurement": "MIC/MLC chart: growth or killing", "setting": "E. coli D1-299 (Tet A); analog alone 25.0 μg/ml (Analog Control)", "result": "+"}, {"measurement": "MIC/MLC chart: growth or killing", "setting": "E. coli D1-299 (Tet A); analog alone 50.00 μg/ml (Analog Control)", "result": "+"}, {"measurement": "MIC/MLC chart: growth or killing", "setting": "E. coli D1-299 (Tet A); [7]", "result": "+"}, {"measurement": "MIC/MLC chart: growth or killing", "setting": "E. coli D1-299 (Tet A); [8]", "result": "+"}, {"measurement": "MIC/MLC chart: growth or killing", "setting": "E. coli D1-299 (Tet A); analog alone .78 μg/ml (Analog Control)", "result": "+"}, {"measurement": "MLC in combination", "setting": "E. coli D1-299 (Tet A); with 5.9 μg/ml doxycycline (Chart 8A)", "result": 6.25, "unit": "µg/mL"}]}
